Measurements as given in patent publication US20070207331A1, “Azo compounds and coating compositions containing the azo compounds” (priority 2006, published 2007).

Test: solubility of the reactive azo compounds in toluene (weight percent solubility)
Assay type: physicochemical
Details: for WPS (weight percent solubility in toluene): heated to boil, cooled to room temperature, filtered (0.45 μm), dry residue mass / filtrate mass; for solubility in toluene relative to compounds of similar structure (in words): comparison of methyl ester comparative compounds with the yellow azo compounds of the invention
Method: The solubilites of the reactive azo compounds of Examples 1, 2, 3 and 4 and Comparative Examples 1, 2 and 3 (C-1, C-2 and C-3) in toluene were determined according to the following procedures: A sample (0.2 g) of each compound was added to a screw top vial followed by the addition of toluene (0.5 mL for each vial containing the reactive azo compound of Examples 1, 3, 4 or C-3; 1.0 mL for Examples 2 or C-1; 1.5 mL for Example C-2. Each vial was capped and heated until the solution or mixture began to boil. Each solution or mixture then was allowed to cool to room temperature. Various amounts of toluene were required to give a filterable solution or suspension upon cooling. The solutions or suspensions of the azo compounds were filtered (0.45 μm nylon membrane with glass microfiber prefilter, Autovial®, Whatman Inc.) to give homogenous solutions (filtrates). Each filtered solution was weighed and the toluene solvent was removed under reduced pressure to give the mass of dry residue of each azo compound dissolved in the toluene solvent. The weight percent solubility of each azo compound is defined as [formula]
wherein WPS is the weight percent solubility for each azo compound in toluene and Dry Azo Compound Residue and Toluene Solution Filtrate are produced as described above. The results of the toluene solubility evaluations are shown in Table II wherein Azo compound refers to the example in which the reactive azo compound and its preparation is described.

Row | SMILES | WPS (weight percent solubility in toluene) | solubility in toluene relative to compounds of similar structure (in words)
1 | C=C(C)c1cccc(C(C)(C)NC(=O)OCCn2c(O)c(/N=N/c3ccccc3C(=O)OCC(CC)CCCC)c(C)c(C#N)c2=O)c1 (stereo not shown) [Example 1] | 37.5 weight percent | 
2 | C=C(C)C(=O)OCCn1c(O)c(/N=N/c2ccccc2C(=O)OCC(C)C)c(C)c(C#N)c1=O [Example 2] | 18.6 weight percent | 
3 | C=C(C)C(=O)OCCn1c(O)c(/N=N/c2ccccc2C(=O)OCC(CC)CCCC)c(C)c(C#N)c1=O (stereo not shown) [Example 3] | 33.3 weight percent | 
4 | C=C(C)C(=O)OCCn1c(O)c(/N=N/c2ccccc2C(=O)OCCOCC)c(C)c(C#N)c1=O [Example 4] | 35.5 weight percent | 
5 | C=C(C)c1cccc(C(C)(C)NC(=O)OCCn2c(O)c(/N=N/c3ccc(C(=O)OC)cc3)c(C)c(C#N)c2=O)c1 [Example C-1] | 8.8 weight percent | much lower
6 | C=C(C)c1cccc(C(C)(C)NC(=O)OCCn2c(O)c(/N=N/c3ccccc3C(=O)OC)c(C)c(C#N)c2=O)c1 [Example C-2] | 2.3 weight percent | much lower
7 | C=C(C)C(=O)OCCn1c(O)c(/N=N/c2ccccc2C(=O)OC)c(C)c(C#N)c1=O [Example C-3] | 11.1 weight percent | much lower
